The results in this text go back to patent US6352958B1, “Cycloimido-substituted benzofused heterocyclic herbicides” (FMC Corporation, priority 1997, dated 2002).

Data set [1] deals with soybean (Glycine max var. Winchester). The experiment in a line: Preemergence herbicidal activity, soybean. Format: in vivo. As to conditions: Glycine max, pre-emergence, Rate of Application 0.3 Kg/Ha, examined after 12-17 days, read-out: PREEMERGENCE HERBICIDAL ACTIVITY (% CONTROL) SOY.
Data set [2] has as its system wheat (Triticum aestivum var. Lew). The experiment in a line: Preemergence herbicidal activity, wheat. It counts as in vivo. As to conditions: Triticum aestivum, pre-emergence, Rate of Application 0.3 Kg/Ha, examined after 12-17 days, read-out: PREEMERGENCE HERBICIDAL ACTIVITY (% CONTROL) WHT.
Data set [3] has as its system field corn (Zea mays var. Pioneer 3732). The experiment in a line: Preemergence herbicidal activity, corn. As to conditions: Zea mays, pre-emergence, Rate of Application 0.3 Kg/Ha, examined after 12-17 days, read-out: PREEMERGENCE HERBICIDAL ACTIVITY (% CONTROL) CRN. It counts as in vivo.
Data set [4] relates to velvetleaf (Abutilon theophrasti). The data set can be described thus: Preemergence herbicidal activity, velvetleaf. As to conditions: Abutilon theophrasti, pre-emergence, Rate of Application 0.3 Kg/Ha, examined after 12-17 days, read-out: PREEMERGENCE HERBICIDAL ACTIVITY (% CONTROL) ABUTH. It counts as in vivo.
For data set [5], the system named is morningglory (Ipomea lacunosa or Ipomea hederacea). The data set can be described thus: Preemergence herbicidal activity, morningglory. It counts as in vivo. As to conditions: Ipomoea, pre-emergence, Rate of Application 0.3 Kg/Ha, examined after 12-17 days, read-out: PREEMERGENCE HERBICIDAL ACTIVITY (% CONTROL) IPOSS.
Data set [6] deals with common chickweed (Stellaria media). The data set can be described thus: Preemergence herbicidal activity, chickweed. Format: in vivo. As to conditions: Stellaria media, pre-emergence, Rate of Application 0.3 Kg/Ha, examined after 12-17 days, read-out: PREEMERGENCE HERBICIDAL ACTIVITY (% CONTROL) STEME.
Data set [7] deals with common cocklebur (Xanthium strumarium L.). The data set can be described thus: Preemergence herbicidal activity, cocklebur. As to conditions: Xanthium strumarium, pre-emergence, Rate of Application 0.3 Kg/Ha, examined after 12-17 days, read-out: PREEMERGENCE HERBICIDAL ACTIVITY (% CONTROL) XANPE. It counts as in vivo.
For data set [8], the system named is blackgrass (Aloepecurus myosuroides). The data set can be described thus: Preemergence herbicidal activity, blackgrass. As to conditions: Alopecurus myosuroides, pre-emergence, Rate of Application 0.3 Kg/Ha, examined after 12-17 days, read-out: PREEMERGENCE HERBICIDAL ACTIVITY (% CONTROL) ALOMY. Format: in vivo.
The subject of data set [9] is green foxtail (Setaria viridis). The data set can be described thus: Preemergence herbicidal activity, green foxtail. Format: in vivo. As to conditions: Setaria viridis, pre-emergence, Rate of Application 0.3 Kg/Ha, examined after 12-17 days, read-out: PREEMERGENCE HERBICIDAL ACTIVITY (% CONTROL) SETVI.
In data set [10] the test system is Johnsongrass (Sorghum halepense). The experiment in a line: Preemergence herbicidal activity, johnsongrass. It counts as in vivo. As to conditions: Sorghum halepense, pre-emergence, Rate of Application 0.3 Kg/Ha, examined after 12-17 days, read-out: PREEMERGENCE HERBICIDAL ACTIVITY (% CONTROL) SORHA.
Data set [11] deals with soybean (Glycine max var. Winchester). The experiment in a line: Postemergence herbicidal activity, soybean. Format: in vivo. As to conditions: Glycine max, post-emergence, rate of application 0.3 Kg/Ha, rated after 12-17 days, read-out: Postemergence herbicidal activity (% control) SOY.
In data set [12] the test system is wheat (Triticum aestivum var. Lew). The data set can be described thus: Postemergence herbicidal activity, wheat. Format: in vivo. As to conditions: Triticum aestivum, post-emergence, rate of application 0.3 Kg/Ha, rated after 12-17 days, read-out: Postemergence herbicidal activity (% control) WHT.
The test system of data set [13] is field corn (Zea mays var. Pioneer 3732). The experiment in a line: Postemergence herbicidal activity, corn. It counts as in vivo. As to conditions: Zea mays, post-emergence, rate of application 0.3 Kg/Ha, rated after 12-17 days, read-out: Postemergence herbicidal activity (% control) CRN.
The subject of data set [14] is velvetleaf (Abutilon theophrasti). The experiment in a line: Postemergence herbicidal activity, velvetleaf. Format: in vivo. As to conditions: Abutilon theophrasti, post-emergence, rate of application 0.3 Kg/Ha, rated after 12-17 days, read-out: Postemergence herbicidal activity (% control) ABUTH.
The test system of data set [15] is morningglory (Ipomea lacunosa or Ipomea hederacea). The data set can be described thus: Postemergence herbicidal activity, morningglory. It counts as in vivo. As to conditions: Ipomoea, post-emergence, rate of application 0.3 Kg/Ha, rated after 12-17 days, read-out: Postemergence herbicidal activity (% control) IPOSS.
Data set [16] relates to common cocklebur (Xanthium strumarium L.). The experiment in a line: Postemergence herbicidal activity, cocklebur. It counts as in vivo. As to conditions: Xanthium strumarium, post-emergence, rate of application 0.3 Kg/Ha, rated after 12-17 days, read-out: Postemergence herbicidal activity (% control) XANPE.
Data set [17] relates to blackgrass (Aloepecurus myosuroides). The experiment in a line: Postemergence herbicidal activity, blackgrass. Format: in vivo. As to conditions: Alopecurus myosuroides, post-emergence, rate of application 0.3 Kg/Ha, rated after 12-17 days, read-out: Postemergence herbicidal activity (% control) ALOMY.
Data set [18] has as its system green foxtail (Setaria viridis). The data set can be described thus: Postemergence herbicidal activity, green foxtail. As to conditions: Setaria viridis, post-emergence, rate of application 0.3 Kg/Ha, rated after 12-17 days, read-out: Postemergence herbicidal activity (% control) SETVI. Format: in vivo.
In data set [19] the test system is Johnsongrass (Sorghum halepense). The experiment in a line: Postemergence herbicidal activity, johnsongrass. It counts as in vivo. As to conditions: Sorghum halepense, post-emergence, rate of application 0.3 Kg/Ha, rated after 12-17 days, read-out: Postemergence herbicidal activity (% control) SORHA.

By melting point is commonly meant the temperature, or range, at which the solid turns liquid. Molecule `Cn1c(C(F)(F)F)cc(=O)n(-c2c(F)cc(Cl)c3[nH]c(C(C)(C)C)nc23)c1=O` [Compound 369, 3-(2-T-BUTYL4-CHLORO-6-FLUOROBENZIMIDAZOL-7-YL)-1-METHYL-6-TRIFLUOROMETHYL-2,4(1H,3H)-PYRIMIDINEDIONE] displayed a melting point of 125 to 130 °C. Further, the inhibition at 300 g/ha in data set [1] turned out to be 100%. For the same molecule, the inhibition at 300 g/ha in [2] turned out to be 100%. For the same molecule, in [3], the inhibition at 300 g/ha amounted to 100%. In data set [4], the inhibition at 300 g/ha was 100%. In addition, in data set [5], the inhibition at 300 g/ha amounted to 100%. Besides, in [6], the inhibition at 300 g/ha turned out to be 100%. Moreover, the inhibition at 300 g/ha in [7] is 100%. Further, the inhibition at 300 g/ha in data set [8] worked out at 100%. Also, in data set [9], the inhibition at 300 g/ha turned out to be 100%. In addition, the inhibition at 300 g/ha in [10] came out at 100%. In data set [11], the inhibition at 300 g/ha stood at 100%. The inhibition at 300 g/ha in data set [12] came to 80%. Also, the inhibition at 300 g/ha in data set [13] stood at 100%. In data set [14], the inhibition at 300 g/ha was 100%. The inhibition at 300 g/ha in data set [15] amounted to 100%. In [16], the inhibition at 300 g/ha was 100%. In data set [17], the inhibition at 300 g/ha is 100%. The inhibition at 300 g/ha in [18] amounted to 100%. In addition, the inhibition at 300 g/ha in [19] worked out at 100%.
